Read-outs that look alike come from different tables or passages of the source.
How the values were obtained:
[1] = tested on: writhing syndrome induced by acetic acid in mice; experiment: Test 2: writhing syndrome induced by acetic acid in mice (analgesic activity); type: in vivo, male ddY mice; details: Mus musculus
Method: Writhing syndrome induced by acetic acid in mice Ten male ddY mice were used per group. Writhing syndrome was produced by an intraperitoneal injection of 20 ml/kg of 0.6% acetic acid in mice. The animals were observed from 3 to 13 minutes after acetic acid injection, and a total number of writhing episodes was recorded. The drugs were given orally 1 hour before acetic acid injection. The frequency of writhing in the treated animals was compared with that in the control animals.

[2] = tested on: pyrexia induced by brewer's yeast in rats; experiment: Test 3: anti-pyretic activity, brewer's yeast-induced pyrexia in rats; type: in vivo, male Sprague-Dawley rats; details: Rattus norvegicus, oral
Method: Anti-pyretic activity Ten male Sprague-Dawley rats were used per group. Pyrexia was induced by SC injection of 10 ml/kg of 5% brewer's yeast suspension. The drugs were given orally […] after yeast injection. Rectal temperature was measured 1 and 2 hours after administration of drugs, and the difference of rectal temperature from that before yeast injection was calculated.

[3] = tested on: inflammatory hyperalgesia induced by brewer's yeast in rats; experiment: Test 5: inflammatory hyperalgesia induced by brewer's yeast in rats (analgesic activity); type: in vivo, male Sprague Dawley rats
Method: Inflammatory hyperalgesia induced by brewer's yeast in rats
Ten male Sprague Dawley rats were used per group. 0.1 Ml of 5% brewer's yeast suspended in 0.5% methylcellulose was injected into the right hind paw, The pain threshold was determined 3 hours after yeast injection, by applying pressure to the foot and reading the pressure at which the rat withdrew the foot.
The drugs were given orally 2 hours after yeast infection. The pain threshold in the treated animals was compared with that in the control animals.

[4] = oral, 1 hour before acetic acid injection, number of writhing episodes 3 to 13 minutes after, read-out: ED50
[5] = rectal temperature 1 hour after administration, read-out: ED50 (1 hr)
[6] = rectal temperature 2 hours after administration, read-out: ED50 (2 hr)

## CC(=NNC(N)=O)c1ccc(NS(C)(=O)=O)c(Oc2ccc(F)cc2F)c1 [Example 40, 3'-(2,4-difluorophenoxy)-4'-methanesulfonamidoacetophenone semicarbazone]
[1]; [4]
  ED50: 18 mg/kg

## CS(=O)(=O)Nc1ccc(C#N)cc1Oc1ccc(F)cc1F [Example 3, 4'-Cyano-2'-(2,4-difluorophenoxy)methanesulfonanilide]
[1]; [4]
  ED50: 2.4 mg/kg

## CC(=O)c1ccc(NS(C)(=O)=O)c(Oc2ccc(F)cc2F)c1 [Example 1, 4'-acetyl-2'-(2,4-difluorophenoxy)methanesulfonanilide]
[2]; [5]
  ED50: 10 mg/kg
[2]; [6]
  ED50: 6.8 mg/kg
[1]; [4]
  ED50: 14 mg/kg

## COc1ccc2c(c1)c(CC(=O)O)c(C)n2C(=O)c1ccc(Cl)cc1 [Indomethacin, reference compound]
[3]; oral, 2 hours after yeast injection, pain threshold 3 hours after yeast injection, read-out: ED30
  ED30: 5.1 mg/kg
[2]; [5]
  ED50: 4.6 mg/kg
[2]; [6]
  ED50: 2.6 mg/kg
[1]; po
  ED50: 1.6 mg/kg

## CC(=O)c1ccc(NS(C)(=O)=O)c(Oc2ccc(F)cc2Cl)c1 [Example 25, 4'-Acetyl-2'-(2-chloro-4-fluorophenoxy)methanesulfonanilide]
[1]; [4]
  ED50: 9.6 mg/kg

## CS(=O)(=O)Nc1ccc(C#N)cc1Oc1ccc(F)cc1F.[Na] [Example 73, 4'-cyano-2'-(2,4-difluorophenoxy)methanesulfonanilide sodium salt]
[3]; po
  ED30: 1.8 mg/kg

## Cc1cc(NS(C)(=O)=O)c(Oc2ccc(F)cc2F)cc1C#N [Example 20, 4'-Cyano-2'-(2,4-difluorophenoxy)-5'-methylmethanesulfonanilide]
[1]; [4]
  ED50: 55.8 mg/kg
